Source: the NIST ThermoML archive (doi:10.1016/j.jct.2014.01.004)
Numbers after ± are expanded uncertainties.

Legend:
[1] = for viscosity / speed of sound / mass density: 101.33 kPa, Liquid; for viscosity: Falling or rolling sphere viscometry; for speed of sound: Sing-around technique in a fixed-path interferometer; for mass density: Vibrating tube method
[2] = Molar enthalpy of transition or fusion; details: Crystal; DSC

Structure (SMILES) | viscosity ([1]; 293.15 K) | speed of sound ([1]; 293.15 K) | mass density ([1]; 293.15 K) | viscosity ([1]; 298.15 K) | speed of sound ([1]; 298.15 K) | mass density ([1]; 298.15 K) | viscosity ([1]; 303.15 K) | speed of sound ([1]; 303.15 K) | mass density ([1]; 303.15 K) | viscosity ([1]; 308.15 K) | speed of sound ([1]; 308.15 K) | mass density ([1]; 308.15 K) | viscosity ([1]; 313.15 K) | speed of sound ([1]; 313.15 K) | mass density ([1]; 313.15 K) | viscosity ([1]; 318.15 K) | speed of sound ([1]; 318.15 K) | mass density ([1]; 318.15 K) | viscosity ([1]; 323.15 K) | speed of sound ([1]; 323.15 K) | also measured
CC(=O)[O-].CCC[NH3+] [propylammonium acetate] | 932.22 ± 95 mPa·s | 1517.1 ± 5.1 m/s | 989.97 ± 5.3 kg/m3 | 627.41 ± 56 mPa·s | 1508 ± 5.1 m/s | 986.91 ± 5.3 kg/m3 | 435.42 ± 34 mPa·s | 1497.1 ± 5.1 m/s | 983.85 ± 5.2 kg/m3 | 309.95 ± 21 mPa·s | 1487.6 ± 5.1 m/s | 980.77 ± 5.2 kg/m3 | 226.35 ± 13 mPa·s | 1477 ± 5.1 m/s | 977.69 ± 5.2 kg/m3 | 167.69 ± 8.2 mPa·s | 1467.8 ± 5.1 m/s | 974.6 ± 5.1 kg/m3 | 128.15 ± 5.5 mPa·s | 1457.5 ± 5.1 m/s | mass density ([1]; 323.15 K): 971.5 ± 5.1 kg/m3; viscosity ([1]; 328.15 K): 99.03 ± 3.8 mPa·s; speed of sound ([1]; 328.15 K): 1447.9 ± 5.1 m/s; mass density ([1]; 328.15 K): 968.4 ± 5.1 kg/m3; viscosity ([1]; 333.15 K): 78.03 ± 2.7 mPa·s; speed of sound ([1]; 333.15 K): 1437.3 ± 5.1 m/s; mass density ([1]; 333.15 K): 965.3 ± 5 kg/m3; viscosity ([1]; 338.15 K): 61.96 ± 2 mPa·s; speed of sound ([1]; 338.15 K): 1427.4 ± 5.1 m/s; mass density ([1]; 338.15 K): 962.17 ± 5 kg/m3; viscosity ([1]; 343.15 K): 50.02 ± 1.6 mPa·s; speed of sound ([1]; 343.15 K): 1417.5 ± 5.1 m/s; mass density ([1]; 343.15 K): 959.03 ± 5 kg/m3; Glass transition temperature ([1]; Glass, DTA): -26.00 ± 4 °C
CCC[NH3+].O=C[O-] [propylammonium formate] | 96.77 ± 3.7 mPa·s | 1553.1 ± 5.2 m/s | 996.18 ± 5.4 kg/m3 | 78.6 ± 2.8 mPa·s | 1542.7 ± 5.2 m/s | 993.47 ± 5.3 kg/m3 | 63.58 ± 2.1 mPa·s | 1532.4 ± 5.1 m/s | 990.77 ± 5.3 kg/m3 | 52.67 ± 1.7 mPa·s | 1522.2 ± 5.1 m/s | 988.09 ± 5.3 kg/m3 | 43.97 ± 1.4 mPa·s | 1512 ± 5.1 m/s | 985.42 ± 5.2 kg/m3 | 37.16 ± 1.2 mPa·s | 1501.8 ± 5.1 m/s | 982.75 ± 5.2 kg/m3 | 31.43 ± 1 mPa·s | 1491.7 ± 5.1 m/s | mass density ([1]; 323.15 K): 980.1 ± 5.2 kg/m3; viscosity ([1]; 328.15 K): 26.92 ± 0.88 mPa·s; speed of sound ([1]; 328.15 K): 1481.6 ± 5.1 m/s; mass density ([1]; 328.15 K): 977.45 ± 5.2 kg/m3; viscosity ([1]; 333.15 K): 23.32 ± 0.77 mPa·s; speed of sound ([1]; 333.15 K): 1471.7 ± 5.1 m/s; mass density ([1]; 333.15 K): 974.8 ± 5.1 kg/m3; viscosity ([1]; 338.15 K): 20.18 ± 0.66 mPa·s; speed of sound ([1]; 338.15 K): 1461.8 ± 5.1 m/s; mass density ([1]; 338.15 K): 972.15 ± 5.1 kg/m3; viscosity ([1]; 343.15 K): 17.57 ± 0.58 mPa·s; speed of sound ([1]; 343.15 K): 1452 ± 5.1 m/s; mass density ([1]; 343.15 K): 969.49 ± 5.1 kg/m3; Normal melting temperature ([1]; Crystal, DTA): 34.00 ± 4 °C; Molar enthalpy of transition or fusion [2]: 2.17 ± 0.12 kcal/mol
